# Legend:
# [1] = system: SLC37A2 expression in MCF-7 cells; assay: SLC37A2 mRNA expression by RT-qPCR in MCF-7 cells; assay type: cell-based
# Description: For reverse transcription quantitative polymerase chain reaction (RT-qPCR) assays, 5×10^5 cells/well were plated in six-well dishes, serum starved in modified IMEM for one day before treatment. RNA was extracted using TriPure reagent (Roche, Basel, Switzerland) and cDNA was created using the qScript cDNA SuperMix kit (Quanta Biosciences, Beverly, Mass.). Relative expression levels were determined by qPCR assays performed on a Roche Light-Cycler II using SYBR green master-mix (Roche, Basel, Switzerland). Target gene quantification levels were normalized to the expression of standard housekeeper genes: TBP, ACTB, 18S, and/or GAPDH.
# PR cooperation with one or more RUNX factors may be a mechanism for promoter selection by uniquely modified receptors. The family of RUNX transcription factors (RUNX1, 2, and 3) has complex roles in development and tumor formation with both tumor suppressive and tumor-promoting activities. […] From the GSEA results, SLC37A2, a candidate PR target gene containing multiple RUNX2 binding motifs immediately upstream and within the gene, was identified (FIG. 7A). SLC37A2 is a glucose-6-phosphate transporter expressed in monocytes as well as breast and cervical tissues. […] PR/progestin-dependent regulation of SLC37A2 mRNA expression in multiple cell line models was thus measured. […]
# breast cancer = details: human, in vivo; cited from earlier work
# ERK1/2 = assay: Breast tumor explants, phospho-ERK1/2 IHC; assay type: cell-based, human; details: progesterone 10 nM, 2 hours
# [2] = system: PR Ser294 phosphorylation; assay: Breast tumor explants, phospho-Ser294 PR IHC; assay type: cell-based, human; details: progesterone 10 nM, 2 hours, IHC, n=6
# Description: De-identified breast tumor samples were collected after surgery and immediately processed for tissue explant maintenance on sponges in cell culture medium, as previously described (Ravindranathan et al. Nature Communications 2013, 4:1923). Samples were derived from six patients pathologically diagnosed with invasive ductal carcinoma (IDC) and scored positive for ER (94-100%) and PR (1-100%), and negative for HER2 expression. […] In additional experiments, six explants were similarly treated with estrogen or progesterone (2 hours) but in combination with 1 uM U0126 (to inhibit ERKs 1/2) and phospho-Ser294 PR levels were measured by IHC.
# ER+ luminal tumors were maintained as explants as above and instead treated with either vehicle or progesterone (10 nM) for 2 hours in the presence or absence of the MEK1/2 inhibitor U0126 (1 nM) prior to IHC staining using specific antibodies for total and phospho-Ser294 PR as well as ER-alpha and phospho-ERK1/2 (n=6; see Methods).
# T47D cells = assay: Mammosphere formation in T47D cells; assay type: cell-based, human; details: T47D EV, WT, KR or S294A PR-B; estrogen 1 nM, progesterone 10 nM; 14 days
# Description: Primary Mammospheres: Adherent cells were washed with PBS and dissociated enzymatically in 0.25% trypsin-EDTA (Invitrogen Corporation, Carlsbad, Calif.). Cells were sieved through a 40-μm sieve (BD FALCON, BD Biosciences, Bedford, Mass.) and analyzed microscopically for single-cellularity. Single cells were plated in ultra-low attachment plates (Corning, Inc., Corning, N.Y.) and cultured in a humid incubator. Cells were grown in a serum-free mammary epithelial basal medium (MEBM; Lonza Group, Basel, Switzerland) containing 1% B27 Supplement (Invitrogen Corporation, Carlsbad, Calif.), 1% penicillin-streptomycin (Invitrogen Corporation, Carlsbad, Calif.), 5 μg/ml insulin (Invitrogen Corporation, Carlsbad, Calif.), 20 ng/ml EGF (Sigma-Aldrich, St. Louis, Mo.), 1 ng/ml hydrocortisone (Sigma-Aldrich, St. Louis, Mo.), and 100 μM β-mercaptoethanol. […] Mammosphere Forming Efficiency (MFE) % was calculated by the number of mammospheres per well/number of cells seeded per well.
# Secondary Mammospheres: Primary mammospheres were collected by centrifugation (5 min, 1000 rpm), and dissociated enzymatically in 0.25% typsin-EDTA. Cells were sieved through a 40-μm tip strainer (Bel-Art SP Scienceware, South Wayne, N.J.) and analyzed microscopically for single-cellularity. […] Mammosphere Forming Efficiency (MFE) % was calculated by the number of mammospheres per well/number of cells seeded per well. […]
Structure (SMILES),"effect on progestin-upregulated SLC37A2 expression ([1]; MCF-7 overexpressing K388R PR, progestin plus mifepristone)","agonist activity on SLC37A2 expression, antiprogestin alone ([1]; cells expressing KR PRs, RU486 treatment alone)",outcome in clinical trials for breast cancer (breast cancer),activation of ERK1/2 (phospho-ERK1/2) in tumor explants (ERK1/2),PR Ser294 phosphorylation in tumor explants [2],total numbers of primary and secondary mammospheres on addition of hormone to culture media (T47D cells)
CC#C[C@]1(O)CC[C@H]2[C@@H]3CCC4=CC(=O)CCC4=C3[C@@H](c3ccc(N(C)C)cc3)C[C@@]21C [mifepristone],blocked,weak partial agonist activity,has not been successful,–,–,–
CC(=O)[C@H]1CC[C@H]2[C@@H]3CCC4=CC(=O)CC[C@]4(C)[C@H]3CC[C@]12C [progesterone],–,–,–,accompanied by activation of ERK1/2,induced robust PR Ser294 phosphorylation,had no significant effect on total numbers in any condition

# — patent publication US10942183B2, “Methods of detecting progesterone receptor and of detecting an expression level” (REGENTS OF THE UNIVERSITY OF MINNESOTA, priority 2017, dated 2021)
